This note sets out measurements from patent US20230190755A1, “Topical formulations of PI3K-delta inhibitors” (Incyte Corporation, priority 2021, published 2023).

One series addresses T1, PI3Kδ (Homo sapiens, UniProt O00329).
T1 construct: purchased Millipore (Bedford, Mass.)
As to the kind of experiment: PI3K enzyme assay of Example 7 ([γ-33P]ATP filter plate). It counts as biochemical. As for the experimental part:
(§1) Materials: Lipid kinase substrate, phosphoinositol-4,5-bisphosphate (PIP2), are purchased from Echelon Biosciences (Salt Lake City, Utah). PI3K isoforms α, β, δ and γ are purchased from Millipore (Bedford, Mass.). ATP, MgCl2, DTT, EDTA, MOPS and CHAPS are purchased from Sigma-Aldrich (St. Louis, Mo.).
(§2) The kinase reaction are conducted in clear-bottom 96-well plate from Thermo Fisher Scientific in a final volume of 24 μL. Inhibitors are first diluted serially in DMSO and added to the plate wells before the addition of other reaction components. The final concentration of DMSO in the assay is 0.5%. The PI3K assays are carried out at room temperature in 20 mM MOPS, pH 6.7, 10 mM MgCl2, 5 mM DTT and CHAPS 0.03%. The reaction mixture is prepared containing 50 μM PIP2, kinase and varying concentration of inhibitors. Reactions are initiated by the addition of ATP containing 2.2 μCi [γ-^33P]ATP to a final concentration of 1000 μM. The final concentration of PI3K isoforms α, β, δ and γ in the assay were 1.3, 9.4, 2.9 and 10.8 nM, respectively. Reactions are incubated for 180 minutes and terminated by the addition of 100 μL of 1 M potassium phosphate pH 8.0, 30 mM EDTA quench buffer. A 100 μL aliquot of the reaction solution are then transferred to 96-well Millipore MultiScreen IP 0.45 μm PVDF filter plate (The filter plate is prewetted with 200 μL 100% ethanol, distilled water, and 1 M potassium phosphate pH 8.0, respectively). The filter plate is aspirated on a Millipore Manifold under vacuum and washed with 18×200 μL wash buffer containing 1 M potassium phosphate pH 8.0 and 1 mM ATP. After drying by aspiration and blotting, the plate is air dried in an incubator at 37° C. overnight. Packard TopCount adapter (Millipore) is then attached to the plate followed with addition of 120 μL Microscint 20 scintillation cocktail (Perkin Elmer) in each well. After the plate sealing, the radioactivity of the product is determined by scintillation counting on Topcount (Perkin-Elmer). IC50 determination is performed by fitting the curve of percent control activity versus the log of the inhibitor concentration using the GraphPad Prism 3.0 software.

A further series addresses T2, PI3Kα (Homo sapiens, UniProt P42336).
T2 construct: purchased Millipore (Bedford, Mass.)
The series is described as above. It is filed as biochemical. As for the experimental part: as §1, §2

The target of the next series is T3, PI3Kγ (Homo sapiens, UniProt P48736).
T3 construct: purchased Millipore (Bedford, Mass.)
The description is as above. It counts as biochemical. As for the experimental part: as §1, §2

For the next series, the target named is T4, PI3Kβ (Homo sapiens, UniProt P42338).
T4 construct: purchased Millipore (Bedford, Mass.)
Described as above. It counts as biochemical. As for the experimental part: as §1, §2

The nature of series [1]: Free fraction by equilibrium dialysis, human plasma and homogenized human skin. It counts as in vitro ADME. As for the experimental part:
(§3) The concentration of Compound A was measured in the epidermis, dermis, and plasma 24 hours post application. Dermal concentrations in minipigs dosed with 1.0% w/w topical formulation were 8× higher compared with dermal concentrations in minipigs dosed with the 0.1% topical formulation. The epidermal concentration for 1.0% w/w topical formulation was 6× higher compared with the 0.1% w/w topical dose. The epidermal concentrations accounted for the combined drug levels in the stratum corneum and viable epidermis layers (i.e., skin samples were not tape stripped). Relatedly, the free fraction of Compound A in plasma and homogenized human skin was evaluated by equilibrium dialysis studies. The mean free fraction in human plasma and skin was […] respectively. In minipigs, the free fraction in plasma was measured at 3.1%.
In general terms: In equilibrium dialysis free small molecules cross a membrane that holds back macromolecules.

Series [2] can be described thus: Free fraction in plasma, minipig. It counts as in vitro ADME. As for the experimental part: as §3
Another series deals with PI3Kδ (p110δ/p85α) (Homo sapiens, UniProt O00329). Briefly: PI3Kδ scintillation proximity assay (Example 8). It counts as biochemical. Particulars: 20 μM ATP, 4 nM PI3Kδ. The text has this:
Lipid kinase substrate, D-myo-Phosphatidylinositol 4,5-bisphosphate (PtdIns(4,5)P2)D (+)-sn-1,2-di-O-octanoylglyceryl, 3-O-phospho linked (PIP2), CAS 204858-53-7, was purchased from Echelon Biosciences (Salt Lake City, Utah). PI3Kδ (p110δ/p85α) was purchased from Millipore (Bedford, Mass.). ATP, MgCl2, DTT, EDTA, MOPS and CHAPS were purchased from Sigma-Aldrich (St. Louis, Mo.). Wheat Germ Agglutinin (WGA) YSi SPA Scintillation Beads was purchased from GE healthcare life sciences (Piscataway, N.J.).
The kinase reaction was conducted in polystyrene 384-well matrix white plate from Thermo Fisher Scientific in a final volume of 25 μL. Inhibitors were first diluted serially in DMSO and added to the plate wells before the addition of other reaction components. The final concentration of DMSO in the assay was 0.5%. The PI3K assays were carried out at room temperature in 20 mM MOPS, pH 6.7, 10 mM MgCl2, 5 mM DTT and CHAPS 0.03%. […] ATP, 4 nM PI3Kδ. Reactions were incubated for 210 min and terminated by the addition of 40 μL SPA beads suspended in quench buffer: 150 mM potassium phosphate pH 8.0, 20% glycerol. 25 mM EDTA, 400 μM ATP. […] After the plate sealing, plates were shaken overnight at room temperature and centrifuged at 1800 rpm for 10 minutes, the radioactivity of the product was determined by scintillation counting on Topcount (Perkin-Elmer). […]
(In general: In a scintillation proximity assay essentially only radioactivity close to the scintillant gives light.)

A further series in a line: IC90 value in the dermis. As for the experimental part:
Based on initial studies it is believed that topical administration of a strength of 0.01% may result in mean plasma concentration of approximately 1 nM at steady state.

Counter-ions that a name gives are not always drawn.

T2 sequence (P42336 whole entry): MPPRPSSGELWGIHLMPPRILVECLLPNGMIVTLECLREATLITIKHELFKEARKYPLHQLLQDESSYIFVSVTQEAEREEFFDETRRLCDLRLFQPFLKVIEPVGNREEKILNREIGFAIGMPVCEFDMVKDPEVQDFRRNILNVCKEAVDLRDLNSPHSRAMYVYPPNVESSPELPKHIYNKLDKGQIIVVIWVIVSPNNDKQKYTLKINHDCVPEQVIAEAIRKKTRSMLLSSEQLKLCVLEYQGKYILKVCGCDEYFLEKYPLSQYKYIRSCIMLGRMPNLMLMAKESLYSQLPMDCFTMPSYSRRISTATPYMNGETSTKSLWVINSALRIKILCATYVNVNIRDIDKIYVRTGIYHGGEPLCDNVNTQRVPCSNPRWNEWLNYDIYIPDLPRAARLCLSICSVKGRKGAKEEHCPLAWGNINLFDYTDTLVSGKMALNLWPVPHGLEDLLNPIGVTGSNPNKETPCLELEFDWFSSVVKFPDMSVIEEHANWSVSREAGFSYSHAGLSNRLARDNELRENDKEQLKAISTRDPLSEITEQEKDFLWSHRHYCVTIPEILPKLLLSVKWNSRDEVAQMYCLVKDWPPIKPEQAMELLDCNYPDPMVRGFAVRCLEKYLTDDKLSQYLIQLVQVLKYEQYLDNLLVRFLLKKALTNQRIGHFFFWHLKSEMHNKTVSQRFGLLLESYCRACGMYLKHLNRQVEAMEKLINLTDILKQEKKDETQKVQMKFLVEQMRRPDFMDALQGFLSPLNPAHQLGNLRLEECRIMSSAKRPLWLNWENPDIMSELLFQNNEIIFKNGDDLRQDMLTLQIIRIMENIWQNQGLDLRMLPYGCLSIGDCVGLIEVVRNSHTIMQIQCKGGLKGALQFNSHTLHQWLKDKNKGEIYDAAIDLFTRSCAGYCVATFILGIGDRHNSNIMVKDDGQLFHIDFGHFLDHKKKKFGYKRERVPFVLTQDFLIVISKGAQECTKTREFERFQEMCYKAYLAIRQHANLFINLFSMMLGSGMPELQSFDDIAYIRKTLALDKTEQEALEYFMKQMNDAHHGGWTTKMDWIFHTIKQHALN
T2 sequence (P27986 whole entry partner): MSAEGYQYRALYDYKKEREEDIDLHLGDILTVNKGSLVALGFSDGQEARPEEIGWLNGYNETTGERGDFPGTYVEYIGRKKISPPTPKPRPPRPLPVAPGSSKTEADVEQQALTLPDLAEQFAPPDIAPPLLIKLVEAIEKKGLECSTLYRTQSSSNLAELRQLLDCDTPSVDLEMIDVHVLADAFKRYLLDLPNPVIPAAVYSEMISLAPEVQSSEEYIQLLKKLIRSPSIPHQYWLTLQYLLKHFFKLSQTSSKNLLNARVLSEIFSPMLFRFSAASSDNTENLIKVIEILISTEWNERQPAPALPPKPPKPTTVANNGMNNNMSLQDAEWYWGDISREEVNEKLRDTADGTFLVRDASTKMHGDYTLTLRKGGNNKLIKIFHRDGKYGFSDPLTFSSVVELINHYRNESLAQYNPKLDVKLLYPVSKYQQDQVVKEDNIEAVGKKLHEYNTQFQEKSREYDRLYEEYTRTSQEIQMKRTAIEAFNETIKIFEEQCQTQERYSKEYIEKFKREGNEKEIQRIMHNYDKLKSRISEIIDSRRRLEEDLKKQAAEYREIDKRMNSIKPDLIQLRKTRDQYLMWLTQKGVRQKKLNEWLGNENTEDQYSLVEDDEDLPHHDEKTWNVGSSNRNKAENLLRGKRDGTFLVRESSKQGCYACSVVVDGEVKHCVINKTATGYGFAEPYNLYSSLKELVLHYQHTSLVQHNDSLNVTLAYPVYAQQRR
Sequence of PI3Kδ (p110δ/p85α) (O00329 whole entry): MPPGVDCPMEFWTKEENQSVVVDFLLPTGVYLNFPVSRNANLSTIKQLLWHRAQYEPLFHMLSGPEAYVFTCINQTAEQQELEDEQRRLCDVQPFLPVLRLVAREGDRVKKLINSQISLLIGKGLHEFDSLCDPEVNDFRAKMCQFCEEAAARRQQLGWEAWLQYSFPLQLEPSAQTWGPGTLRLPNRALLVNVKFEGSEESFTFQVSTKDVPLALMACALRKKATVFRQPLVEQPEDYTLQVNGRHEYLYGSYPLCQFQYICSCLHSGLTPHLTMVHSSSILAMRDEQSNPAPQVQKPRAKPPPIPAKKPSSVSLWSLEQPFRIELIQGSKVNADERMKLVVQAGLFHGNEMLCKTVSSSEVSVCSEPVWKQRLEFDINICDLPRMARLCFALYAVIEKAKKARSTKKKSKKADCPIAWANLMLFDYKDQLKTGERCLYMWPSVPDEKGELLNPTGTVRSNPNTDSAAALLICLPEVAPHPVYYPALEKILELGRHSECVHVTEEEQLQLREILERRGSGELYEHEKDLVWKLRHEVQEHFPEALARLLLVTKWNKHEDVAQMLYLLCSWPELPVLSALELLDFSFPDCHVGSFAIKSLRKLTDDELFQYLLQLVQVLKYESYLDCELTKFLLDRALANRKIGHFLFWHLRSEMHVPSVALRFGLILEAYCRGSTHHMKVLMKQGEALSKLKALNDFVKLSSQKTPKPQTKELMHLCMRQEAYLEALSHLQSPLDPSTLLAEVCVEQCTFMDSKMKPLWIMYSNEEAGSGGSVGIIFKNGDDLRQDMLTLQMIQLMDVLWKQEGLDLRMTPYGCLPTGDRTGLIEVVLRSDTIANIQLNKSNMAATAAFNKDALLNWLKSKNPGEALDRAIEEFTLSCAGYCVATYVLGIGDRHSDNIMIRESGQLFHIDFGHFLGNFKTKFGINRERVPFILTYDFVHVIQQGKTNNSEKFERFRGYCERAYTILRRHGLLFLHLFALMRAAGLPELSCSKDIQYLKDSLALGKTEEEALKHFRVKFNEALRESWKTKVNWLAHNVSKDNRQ
Sequence of PI3Kδ (p110δ/p85α) (P27986 whole entry partner): as the sequence (P27986 whole entry partner) above
T1 sequence (O00329 whole entry): as the sequence (O00329 whole entry) above
T1 sequence (P27986 whole entry partner): as the sequence (P27986 whole entry partner) above
T4 sequence (P42338 whole entry): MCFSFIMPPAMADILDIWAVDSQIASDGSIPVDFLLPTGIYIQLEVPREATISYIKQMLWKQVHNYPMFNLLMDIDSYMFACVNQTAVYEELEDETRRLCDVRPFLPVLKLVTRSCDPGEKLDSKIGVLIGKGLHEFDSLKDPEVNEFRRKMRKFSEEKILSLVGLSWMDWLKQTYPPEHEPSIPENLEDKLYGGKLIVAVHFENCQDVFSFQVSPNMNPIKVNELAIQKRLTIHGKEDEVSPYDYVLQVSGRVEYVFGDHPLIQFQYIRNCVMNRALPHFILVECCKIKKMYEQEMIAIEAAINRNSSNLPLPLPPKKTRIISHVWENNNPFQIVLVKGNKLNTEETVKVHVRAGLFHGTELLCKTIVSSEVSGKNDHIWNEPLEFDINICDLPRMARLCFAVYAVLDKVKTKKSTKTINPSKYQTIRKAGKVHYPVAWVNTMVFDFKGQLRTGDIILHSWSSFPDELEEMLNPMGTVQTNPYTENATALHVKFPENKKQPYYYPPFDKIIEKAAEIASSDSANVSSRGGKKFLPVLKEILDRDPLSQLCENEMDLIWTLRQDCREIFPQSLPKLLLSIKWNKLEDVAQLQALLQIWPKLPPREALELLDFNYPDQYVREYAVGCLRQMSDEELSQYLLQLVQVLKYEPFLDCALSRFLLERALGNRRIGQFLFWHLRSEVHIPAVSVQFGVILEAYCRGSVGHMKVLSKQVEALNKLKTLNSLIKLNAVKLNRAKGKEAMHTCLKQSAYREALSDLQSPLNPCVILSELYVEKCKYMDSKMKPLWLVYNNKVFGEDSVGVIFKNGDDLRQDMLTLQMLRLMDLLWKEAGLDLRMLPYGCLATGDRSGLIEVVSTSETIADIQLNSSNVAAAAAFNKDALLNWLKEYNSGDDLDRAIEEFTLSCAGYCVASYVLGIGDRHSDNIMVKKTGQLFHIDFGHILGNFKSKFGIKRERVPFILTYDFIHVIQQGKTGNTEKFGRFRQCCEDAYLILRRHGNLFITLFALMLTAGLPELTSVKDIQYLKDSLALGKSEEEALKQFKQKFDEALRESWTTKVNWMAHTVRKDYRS
T4 sequence (P27986 whole entry partner): as the sequence (P27986 whole entry partner) above

As for `CCOc1c([C@H](C)n2nc(C)c3c(N)ncnc32)cc(Cl)c(F)c1[C@@H]1CNC(=O)C1` [Compound A HCl, (R)-4-(3-((S)-1-(4-Amino-3-methyl-1H-pyrazolo[3,4-d]pyrimidin-1-yl)ethyl)-5-chloro-2-ethoxy-6-fluorophenyl)pyrrolidin-2-one Hydrochloric Acid Salt], the “selectivity for PI3Kδ (in words)” value on PI3Kδ was “selective inhibitor for PI3Kδ”. Also, the “selectivity for PI3Kδ over PI3Kα” value on PI3Kα is on record as more than 100 fold. Moreover, the “selectivity for PI3Kδ over PI3Kγ” value on PI3Kγ is more than 100 fold. The “selectivity for PI3Kδ over PI3Kβ” value at PI3Kβ is listed as more than 100 fold.

`CCOc1c([C@H](C)n2nc(C)c3c(N)ncnc32)cc(Cl)c(F)c1[C@@H]1CNC(=O)C1` [Compound A, (R)-4-(3-((S)-1-(4-amino-3-methyl-1H-pyrazolo[3,4-d]pyrimidin-1-yl)ethyl)-5-chloro-2-ethoxy-6-fluorophenyl)pyrrolidin-2-one]: the fraction unbound in series [1] (homogenized skin, read-out: Mean free fraction in homogenized human skin) amounted to 0.33; in series [1] (plasma, read-out: Mean free fraction in human plasma), 0.074; in series [2] it was 0.031. Also, the IC50 (usually the concentration needed to halve the response being measured) against PI3Kδ (p110δ/p85α) is less than 10 nM. Moreover, the IC90 – broadly, the concentration needed for an effect of 90% – in the series “IC90 value in the dermis” is approximately 20 nM.
